Laboratory results reported in patent publication US6894068B2, “Substituted benzimidazoles as non-nucleoside inhibitors of reverse transcriptase” (The United States of America as represented by the …, priority 1997, dated 2005).
“Also recorded” adds a separate entry of the source. Read-outs that look alike come from different tables or passages of the source.

What was measured:
[1] = test system: WT and HIV-1 variants containing amino acid substitutions in RT; format: cell-based; conditions: cytopathic cell killing assay, NNRTI-resistant HIV isolates
Excerpt: In these Tables, antiviral data are reported as the quantity of drug in μM required to reduce cell killing or virus production by 50% (EC50). The various HIV isolates tested in the Figures are those corresponding to wild-type virus (NL4-3) and the other strains listed by their RT mutations. The three 4×AZT isolates included in the Figures represent AZT drug-resistant variants.
Briefly, in this method cells (e.g., the CEM-SS cell line, available from the NIAID AIDS Research and Reference Program [ARRRP]) were seeded at a density of 5×10^3 cells/well, into the wells of a 96-well microtiter plate. The cells were then infected with HIV virus (either mutant or WT), at a multiplicity of infection (MOI) previously determined to provide complete cell killing by 6 days of culture post-infection (e.g., MOI of 0.01-0.05). Each of the HIV isolates was pre-titered to induce equivalent levels of infection based on cell killing or virus production, prior to their use in these assays. A range of test compound concentrations was added to the wells in triplicate (e.g., serial half-log dilutions) to evaluate inhibition of HIV infection. Controls for each assay included drug controls (drug colorimetric control wells), drug cytotoxicity control wells (cells with drug), virus control wells (cells with virus), and cell viability controls (cells only). Positive control drugs (e.g. AZT and ddC) were also run in parallel.
(§1) After six days of incubation at 37° C., cell viability was determined spectrophotometrically at 450 nm for each well, using the metabolic reduction of XTT to a soluble colored formazan. (See, Gartner and Popovic, “Virus Isolation and Production, in Aldovini and Walker (eds.), Techniques in HIV Research, Stockton Press, NY, pp. […] [1991]; and Nara and Fischinger, “Quantitative Infectivity Assay for HIV-1 and HIV-2, ” Nature 332:469-470 [1988]).
Antiviral and toxicity data were reported as the quantity of drug required to inhibit 50% of virus-induced cell killing or virus production (EC50), and the quantity of drug required to […] (IC50). The in vitro therapeutic index (TI50) was defined as the fold-difference between the EC50 and IC50.

HIV-1 isolate M184I = test: Cytopathic cell killing assay, isolate M184I; format: cell-based; conditions: Human immunodeficiency virus 1, read-out: EC50, isolate M184I
Excerpt: (§2) The various HIV isolates tested in the Figures are those corresponding to wild-type virus (NL4-3) and the other strains listed by their RT mutations. The three 4×AZT isolates included in the Figures represent AZT drug-resistant variants. For example, the 4×AZT/L100I isolate has five mutations: four mutations confer increased resistance to AZT, and the other mutation is located within the NNRTI binding pocket. TZB and nevir. (nevirapine) are two well-known NNRTIs, included in this experiment for comparison purposes.
(§3) In this Example, the antiviral and cellular toxicity of NNRTIs was investigated, using the cytopathic cell killing assay described by Yang (Yang et al., “Characteristics of a Group of Non-nucleoside Reverse Transcriptase Inhibitors with Structural Diversity and Potent Anti-Human Immunodeficiency Virus Activity,” Leukemia 9:S75-S85 [1995]). Briefly, in this method cells (e.g., the CEM-SS cell line, available from the NIAID AIDS Research and Reference Program [ARRRP]) were seeded at a density of 5×10^3 cells/well, into the wells of a 96-well microtiter plate. The cells were then infected with HIV virus (either mutant or WT), at a multiplicity of infection (MOI) previously determined to provide complete cell killing by 6 days of culture post-infection (e.g., MOI of 0.01-0.05). Each of the HIV isolates was pre-titered to induce equivalent levels of infection based on cell killing or virus production, prior to their use in these assays. A range of test compound concentrations was added to the wells in triplicate (e.g., serial half-log dilutions) to evaluate inhibition of HIV infection. […]
(§4) After six days of incubation at 37° C., cell viability was determined spectrophotometrically at 450 nm for each well, using the metabolic reduction of XTT to a soluble colored formazan. (See, Gartner and Popovic, “Virus Isolation and Production, in Aldovini and Walker (eds.), Techniques in HIV Research, Stockton Press, NY, pp. […] [1991]; and Nara and Fischinger, “Quantitative Infectivity Assay for HIV-1 and HIV-2, ” Nature 332:469-470 [1988]). […]

HIV-1 isolate V108I = test: Cytopathic cell killing assay, MT-4 cells, isolate V108I; format: cell-based; conditions: Human immunodeficiency virus 1, MT4, read-out: EC50, isolate V108I, Table 10; values in μM
Excerpt: as §2
(§5) In this Example, the antiviral and cellular toxicity of NNRTIs was investigated, using the cytopathic cell killing assay described by Yang (Yang et al., “Characteristics of a Group of Non-nucleoside Reverse Transcriptase Inhibitors with Structural Diversity and Potent Anti-Human Immunodeficiency Virus Activity,” Leukemia 9:S75-S85 [1995]). Briefly, in this method cells (e.g., the CEM-SS cell line, available from the NIAID AIDS Research and Reference Program [ARRRP]) were seeded at a density of 5×10^3 cells/well, into the wells of a 96-well microtiter plate. The cells were then infected with HIV virus (either mutant or WT), at a multiplicity of infection (MOI) previously determined to provide complete cell killing by 6 days of culture post-infection (e.g., MOI of 0.01-0.05). Each of the HIV isolates was pre-titered to induce equivalent levels of infection based on cell killing or virus production, prior to their use in these assays. A range of test compound concentrations was added to the wells in triplicate (e.g., serial half-log dilutions) to evaluate inhibition of HIV infection. Controls for each assay included drug controls (drug colorimetric control wells), drug cytotoxicity control wells (cells with drug), virus control wells (cells with virus), and cell viability controls (cells only). Positive control drugs (e.g. AZT and ddC) were also run in parallel.
as §1
(§6) The in vitro therapeutic index (TI50) was defined as the fold-difference between the EC50 and IC50. The results for the various compounds are included in FIGS. 8 and 19.

HIV-1 isolate A98G = test: Cytopathic cell killing assay, MT-4 cells, isolate A98G; format: cell-based; conditions: Human immunodeficiency virus 1, MT4, read-out: EC50, isolate A98G, Table 8; MT-4 cells
Excerpt: as §2, §5, §1, §6

HIV-1 isolate K101E = test: Cytopathic cell killing assay, MT-4 cells, isolate K101E; format: cell-based; conditions: Human immunodeficiency virus 1, MT4, read-out: EC50, isolate K101E, Table 10; values in μM
Excerpt: as §2, §5, §1, §6

HIV-1 isolate L100I = test: Cytopathic cell killing assay, MT-4 cells, isolate L100I; format: cell-based; conditions: Human immunodeficiency virus 1, MT4, read-out: EC50, isolate L100I, Table 10; values in μM
Excerpt: as §2, §5, §1, §6

HIV-1 isolate K103N = test: Cytopathic cell killing assay, MT-4 cells, isolate K103N; format: cell-based; conditions: cytopathic cell killing assay
Excerpt: as §2, §5, §1, §6

HIV-1 isolate Y181C = test: Cytopathic cell killing assay, MT-4 cells, isolate Y181C; format: cell-based
Excerpt: as §2, §5, §1, §6

[2] = test system: HIV-1 isolate 4xAZT (AZT drug-resistant variant); test: Cytopathic cell killing assay, MT-4 cells, isolate 4xAZT; format: cell-based; conditions: Human immunodeficiency virus 1, MT4, read-out: EC50, isolate 4XAZT
Excerpt: as §2, §3, §4

HIV-1 WT virus (NL4-3) = test: microbe, parasite or virus in culture; format: cell-based; conditions: Human immunodeficiency virus 1, NL43, CEM-SS, read-out: EC50
Method: Evaluation of these compounds for the inhibition of HIV-1 was determined as the fifty percent cell culture inhibitory concentration (CIC50) in CEMSS cell culture with WT virus (NL4-3).
as §5, §1, §6

HIV-1 isolate Y188H = test: Cytopathic cell killing assay, isolate Y188H; format: cell-based; conditions: Human immunodeficiency virus 1, read-out: EC50, isolate Y188H
Excerpt: as §2, §5, §1, §6

[3] = Table 7, drug concentration required to reduce cell killing or virus production by 50%, WT

Structure (SMILES) | cross-resistance profile, result in words [1] | cross-resistance profile, result in words ([1]; listed as 44) | EC50 (HIV-1 isolate M184I) [µM] | EC50 (HIV-1 isolate V108I) [µM] | EC50 (HIV-1 isolate A98G) [µM] | EC50 (HIV-1 isolate K101E) [µM] | EC50 (HIV-1 isolate L100I) [µM] | activity against K103N, result in words (HIV-1 isolate K103N) | EC50 (HIV-1 isolate Y181C; Human immunodeficiency virus 1, MT4, read-out: EC50, isolate Y181C, Table 10, values in μM) [µM] | activity against Y181C, result in words (HIV-1 isolate Y181C; cytopathic cell killing assay) | EC50 [2] [µM] | melting point [°C] | EC50 (HIV-1 WT virus (NL4-3); [3]) [µM] | EC50 (HIV-1 WT virus (NL4-3); Table 11, CEMSS/NL4-3, NRVC = no reduction in viral CPE) [µM] | EC50 (HIV-1 WT virus (NL4-3); text b130, cytopathic cell killing assay, WT) [µM] | EC50 (HIV-1 isolate Y188H) [µM]
COc1cccc2c1nc(-c1c(F)cccc1F)n2Cc1c(F)cccc1F [Compound 5006, 1-(2,6-difluorobenzyl)-2-(2,6-difluorophenyl)-4-methoxylbenzimidazole] | inhibit HIV-1 better than TZB; also recorded: equal or better against the various variants than nevirapine | retained the best activity against the different RT variants; also recorded: retains activity comparable with nevirapine | 0.16 | 2.82 | 0.3 | 2.82 | 0.16 | failed to show any activity | 0.26 | maintaining activity | 0.6 | 154 to 155 | 0.0046 | 0.06 | 0.0046 | 0.26
O=[N+]([O-])c1cccc2c1nc(-c1c(F)cccc1F)n2Cc1c(F)cccc1F [Compound 3100, 1-(2,6-difluorobenzyl)-2-(2,6-difluorophenyl)-4-nitrobenzimidazole] | – | – | – | – | – | – | – | – | – | – | – | 169 | 2.4 | – | – | > 50
